Patent US20070141171A1, “NOVEL COMPOSITION AND METHOD FOR THE TREATMENT OF HYPERTENSION” (priority 2003, published 2007)

What was measured:
Assay type in all cases: cell-based
[1] = tested on: cultured human aortic smooth muscle cells (SMC); experiment: SMC collagen gel contraction stimulated by angiotensin II; conditions: for activity as inhibitor of Ang II-stimulated gel contraction: summary statement; for rank of effectiveness on ATII-induced gel contraction (catechins) / rank of effectiveness on ATII (polyphenols): at 30; for effect on ATII-induced gel: 1-4 mM, individual or comb; for GA, % vs 100% control / increase in gel area (GA) vs ATII: 30 mcM; for GA, % vs 100% control: ATII alone 76%
Procedure: Plant-derived bioflavonoids have been recognized to support arterial wall structural integrity and interfere with a variety of pro-atherosclerotic stimuli. We tested whether bioflavonoids have an effect on the contractile activity of cultured human aortic smooth muscle cells (SMC) embedded in a three-dimensional type I collagen (1 mg/mL) matrix. […]
The following starting material and equipment were used. • 1. Cultured vascular smooth muscle cells (SMC) isolated from human aorta.
Cells are used from 4th to 8th passages. • 2. Human collagen type I. • 3. Angiotensin II. • 4. Epican Forte (composition shown in Table 1, available from Matthias Rath, Inc., and all ingredients commercially available) • 5. Epigallocatechin gallate (EGCG) • 6. Quercetin (chemical structure is well defined) • 7. Cell culture medium (DMEM) • 8. 24 well plastic cell culture plate pre-incubated with 2 mg/ml bovine serum albumin. • 9. Digital camera • 10. Digital image analyzing software (Scion Corporation). • 11. Zymography gel electrophoresis assay (Novorex Corp).
Confluent culture of SMC and suspended from culture flask by trypsinization and washed with phosphate-buffered saline (PBS) from serum-containing medium. Cell concentration in suspension was brought to 500,000 cell per mL in serum-free DMEM. Cell suspension was then mixed 1:1 with ice-cold 2 mg/ml collagen type I solution in PBS. Final concentration of collagen was 1 mg/mL, final cell concentration is 250,000 per mL. Collagen-SMC suspension was distributed by 300 microL to the wells of 24 well plate in such a manner to cover the entire bottom surface of the well. The plate was then incubated for one hour at 37° C. to allow gel to polymerize. 0.5 mL of experimental serum-free medium containing no additions (control), […] was added to polymerized gel, plate was then gently tapped on the side to detach gel from the bottom of plastic well, and plate was then placed to incubator with the controlled atmosphere containing 5%CO2 at 37° C. for incubation. After 24 hour incubation plate was taken from the incubator and plate image with floating gels was taken using digital camera. Gel flat surface area is measured with digital image analyzing software. Sample of cell culture media was taken for analysis of matrix metalloproteinases activity by zymography (Novorex Corp). Experiments were performed in triplicates and results are presented as a mean +/−SD.

[2] = tested on: cultured human aortic smooth muscle cells (SMC); experiment: SMC collagen gel contraction stimulated by Thrombin; conditions: for GA, % vs 100% control: 30 mcM, Thrombin alone 70%
[3] = tested on: cultured human aortic smooth muscle cells (SMC); experiment: SMC collagen gel contraction stimulated by Angiotensin I; conditions: Mar. 25, 2003; ATI 330-1000 nM alone
[4] = Mar. 25, 2003, in combination with EF

Compound: N=C(N)NCCC[C@H](N)C(=O)O [Arginine]
- effect on ATII-induced gel reduction ([1]; Mar. 20, 2003, Arginine 0.5-2 mM): no significant effect

Compound: O=C1O[C@H]([C@@H](O)CO)C(O)=C1O [AsA, ascorbic acid]
- activity as inhibitor of Ang II-stimulated gel contraction ([1]; 1 micromol/L Ang II, 24 hours): not significantly active
- effect on ATII GA reduction ([1]; Apr. 2, 2003, AsA 200 mcM): had no effect
- effect on ATII-induced gel reduction ([1]; Apr. 17, 2003, AsA 500 mcM alone): did not have effect
- effect on ATII-induced gel reduction ([1]; Apr. 17, 2003, AsA 500 mcM in combination with 10 EGCG): did not have effect
- gel reduction to % of 100% control ([1]; Mar. 18, 2003, ATII 1 mcM + AsA 100 mcM): 30%
- gel reduction to % vs 100% ATII 1 mcM ([1]; Mar. 20, 2003, AsA 0.5 mM + ATII): 90%
- effect on Thrombin GA reduction ([2]; Apr. 2, 2003, AsA 200 mcM): had no effect

Compound: Oc1cc(O)c2c(c1)OC(c1ccc(O)c(O)c1)C(O)C2 (stereo not drawn) [C]
- rank of effectiveness on ATII-induced gel contraction (catechins) ([1]; Apr. 17, 2003): EC=C

Compound: [Ca+2] [Ca]
- effect on ATII-induced gel ([1]; Mar. 20, 2003): no effects

Compound: O=C(O[C@@H]1Cc2c(O)cc(O)cc2O[C@@H]1c1ccc(O)c(O)c1)c1cc(O)c(O)c(O)c1 [ECG]
- rank of effectiveness on ATII-induced gel contraction (catechins) ([1]; Apr. 17, 2003): more effective than EC=C

Compound: Oc1cc(O)c2c(c1)O[C@H](c1ccc(O)c(O)c1)[C@H](O)C2 [EC]
- rank of effectiveness on ATII-induced gel contraction (catechins) ([1]; Apr. 17, 2003): EC=C

Compound: O=C(O[C@@H]1Cc2c(O)cc(O)cc2O[C@@H]1c1cc(O)c(O)c(O)c1)c1cc(O)c(O)c(O)c1 [EGCG, Epigallocatechin gallate]
- activity as inhibitor of Ang II-stimulated gel contraction ([1]; 1 micromol/L Ang II, 24 hours): most active inhibitors of gel contraction
- inhibition of Ang II-induced gel contraction ([1]; 30 micromol/L, 1 micromol/L Ang II, 24 hours): 97%
- GA, % vs 100% control ([1]; Apr. 2, 2003): 150%
- effect on gel contraction by ATII ([1]; Apr. 17, 2003, EGCG 3.3-10-30 mcM): dose-dependently reduced gel contraction
- rank of effectiveness on ATII-induced gel contraction (catechins) ([1]; Apr. 17, 2003): more effective than ECG30
- gel reduction to % of 100% control ([1]; Mar. 18, 2003, ATII 1 mcM + EGCG 15 mcM): 30%
- GA, % vs 100% control ([2]; Apr. 2, 2003): 206%

Compound: O=c1c(-c2ccc(O)cc2)coc2cc(O)cc(O)c12 [Genistein]
- GA, % vs 100% control ([1]; Apr. 2, 2003): 96%
- rank of effectiveness on ATII (polyphenols) ([1]; Apr. 17, 2003): Querc30=>Genist30=>Resver30=>Rutin30
- increase in gel area (GA) vs ATII ([1]; Mar. 25, 2003, alone): 34%
- increase in gel area (GA) vs ATII [1, 4]: 11%
- GA, % vs 100% control ([2]; Apr. 2, 2003): 78%

Compound: NCCCC[C@H](N)C(=O)O [Lysine]
- effect on ATII GA reduction ([1]; Mar. 28, 2003, 0.25-1 mM): did not effect

Compound: [Mg+2] [Mg]
- effect on ATII-induced gel ([1]; Mar. 20, 2003): no effects

Compound: CC(=O)N[C@@H](CS)C(=O)O [NAC, N-Acetyl Cystein]
- GA returned to % of control ([1]; Mar. 26, 2003, NAC 2 mcM, ATII 1 mcM (21% reduction)): 100%
- effect on ATII GA reduction ([1]; Mar. 26, 2003, NAC higher concentration up to 60 mcM): did not have any effect

Compound: O=C(O)[C@@H]1CCCN1 [Proline]
- effect on ATII GA reduction ([1]; Mar. 28, 2003, 0.25-1 mM): did not effect

Compound: O=c1c(O)c(-c2ccc(O)c(O)c2)oc2cc(O)cc(O)c12 [Quercetin]
- activity as inhibitor of Ang II-stimulated gel contraction ([1]; 1 micromol/L Ang II, 24 hours): most active inhibitors of gel contraction
- GA, % vs 100% control ([1]; Apr. 2, 2003): 167%
- rank of effectiveness on ATII (polyphenols) ([1]; Apr. 17, 2003): Querc30=>Genist30=>Resver30=>Rutin30
- inhibition at 30 µM ([1]; Homo sapiens, 30 micromol/L, 1 micromol/L Ang II, 24 hours, read-out: inhibition of Ang II-induced gel contraction): 120%
- GA, % vs 100% control ([2]; Apr. 2, 2003): 133%

Compound: Oc1ccc(C=Cc2cc(O)cc(O)c2)cc1 [Resveratrol]
- GA, % vs 100% control ([1]; Apr. 2, 2003): 88%
- rank of effectiveness on ATII (polyphenols) ([1]; Apr. 17, 2003): Querc30=>Genist30=>Resver30=>Rutin30
- effect on gel area vs ATII ([1]; Mar. 25, 2003, 15 mcM, alone): no effect
- effect on EF effect ([1]; Mar. 25, 2003, 15 mcM, with EF): no effect
- increase in gel area (GA) vs ATII ([1]; Mar. 25, 2003, alone): 45%
- increase in gel area (GA) vs ATII [1, 4]: 104%
- GA, % vs 100% control ([2]; Apr. 2, 2003): 106%

Compound: C[C@@H]1O[C@@H](OC[C@H]2O[C@@H](Oc3c(-c4ccc(O)c(O)c4)oc4cc(O)cc(O)c4c3=O)[C@H](O)[C@@H](O)[C@@H]2O)[C@H](O)[C@H](O)[C@H]1O [Rutin]
- GA, % vs 100% control ([1]; Apr. 2, 2003): 80%
- GA, % vs 100% control ([2]; Apr. 2, 2003): 56%

Compound: Angiotensin I (DRVYIHPFHL; Angiotensin-1; UniProt P01019 25-34, looked up) [ATI, stimulus of gel contraction]
- gel reduction [3]: gel reduction at 1000 nM only

Compound: Angiotensin II (DRVYIHPF; Angiotensin-2; UniProt P01019 25-32, looked up) [ATII, stimulus of gel contraction, reference compound]
- GA reduced by ([1]; Apr. 2, 2003, ATII alone at 1 mcM): 24%
- effect on gel contraction ([1]; Mar. 7, 2003, ATII 1 mcM alone): no effects
- gel reduction to % of Control 100% ([1]; Mar. 11, 2003, ATII 1 mcM alone): 59%
- gel reduction to % of 100% control ([1]; Mar. 18, 2003, ATII 1 mcM alone): 23%
- gel reduction to % of 100% control ([1]; Mar. 20, 2003, ATII 1 mcM alone): 81%
- reduction in gel ([1]; Mar. 25, 2003, ATII 110-330-1000 nM alone): dose dependent reduction in gel
- GA reduction ([1]; Mar. 26, 2003, ATII 1 mcM alone): 21%

Compound: Thrombin [reference compound]
- GA reduced by ([2]; Apr. 2, 2003, Thrombin alone at 1 mcM): 30%
- effect on gel contraction ([2]; Mar. 7, 2003, Thrombin 0.1 U/mL alone): no effects
- gel reduced by ([2]; Mar. 10, 2003, Thrombin 0.1 U/mL alone, 9% in control): 58%
